{"source": "patent US11597739B2", "about": "“Enhancing CD8+ T cells for adoptive T cell therapy by inhibiting PTPN1 (PTP1B) and PTPN2 (TC-PTP)” (The Royal Institution for the Advancement of …, priority 2017, dated 2023)", "system": "mouse CD8 T cells differentiated into Tcm cells", "experiment": "Exhaustion and effector markers after CTL re-stimulation (flow cytometry)", "type": "cell-based", "settings": "second stimulation with anti-CD3, anti-CD28 and IL-2 for 5 days", "source_text": "FIG. 8 illustrates that pharmacological inhibition of PTPN1/2 reduces expression of exhaustion markers and increases effector-molecule expression after CTL re-stimulation. Flow cytometric analysis of CD8 T cells differentiated into Tcm cells after 5 days of a second stimulation with anti-CD3 and anti-CD28 in presence or absence of K884. Histograms show the expression of exhaustion markers PD-1, CTLA-4, KLRG1 and LAG-3, and granzyme B and IFN-γ as markers of effector CTLs. Cells are gated on live/CD8+/CD62L^high.\n2 μg/ml of 145-2C11 Hamster anti-Mouse CD3e in 300 μl of PBS are plated in 24 flat bottom well non-TC treated plates. Incubate O/N at 4° C. CD8 T cells from spleens of 8-12 weeks old OT-1 transgenic mice are isolated. 4×10^5 cells/ml are counted and resuspended in complete RPMI (RPMI+10% FBS heat inactivated at 55° C. for 45 min+Pen/Strep+55 μM β-Mercaptoethanol). The following 2× solutions are prepared:\n0.5 ml of 2× solution is added to the corresponding wells. Incubate for 4-8 days. Every 2 days add inhibitor to the corresponding concentration. When the cells are confluent, expand to 6 cm tissue culture plates adding 4 ml of complete RPMI+20 U/ml of IL-2 and in b add 10 μM K884.\nCalculate the specific cell lysis as follows: Specific cell lysis=((Sample−BF)/(AF−BF))×100 10) Flow Cytometry 1. Cell Activation • a. Wash cells with 1 ml of culture medium; • b. Centrifuge cells for 5 min at 300 g; • c. Resuspend cells in culture medium; • d. Prepare 2× solutions (negative control with only culture medium, Positive condition with 50 ng/mL of PMA and 500 ng/mL of lonomycin); • e. Plate 100 μL of cell suspension in 96 well plates (U-bottom); • f. Add 100 μL of 2× solutions in appropriate wells; • g. Incubate 4 hours at 37 C, 5% CO2. 2. Extracellular Staining • a. Record cell quantity transfers per tube; • b. Wash cells with 1 mL of PBS+2% FBS; • c. Centrifuge cells for 5 min at 300 g; • d. Empty tubes by inversion; • e. Add the antibodies for extracellular staining; • f. Incubate 20 min at 4° C.; • g. Wash cells with 1 mL of PBS+2% FBS; • h. Centrifuge cells for 5 min at 300 g; • i. […]", "data": [{"smiles": "CCOC(=O)c1cc2cc(C(F)(F)P(=O)(O)O)c(Br)cc2s1", "note": "[Ex. 1, ((6-BROMO-2-(ETHOXYCARBONYL)BENZO[B]THIOPHEN-5-YL)DIFLUOROMETHYL)PHOSPHONATE]", "values": [{"measurement": "expression of exhaustion markers PD-1, CTLA-4, KLRG1", "value": "displayed less exhaustion markers PD-1, CDTLA4 and KLRG1"}, {"measurement": "expression of the receptor LAG-3", "value": "increased expression of the receptor LAG-3"}, {"measurement": "levels of Granzyme B and IFN-gamma", "value": "higher levels of Granzyme B and IFN-gamma"}]}]}
